Drawing on publication PMC9718554, “Discovery of a fragment hit compound targeting D-Ala:D-Ala ligase of bacterial peptidoglycan biosynthesis” (Journal of Enzyme Inhibition and Medicinal Chemistry, 2022), this text covers remaining activity for 62 compounds.

The target in the test is T1, E. coli DdlB enzyme (D-alanine:D-alanine ligase) (Escherichia coli, UniProt P07862).
T1 construct: made in house; host or cells: E. coli
Put plainly: biochemical. As to conditions: for remaining activity at 2100 µM: tested concentration 2.1 mM; for remaining activity at 2400 µM: tested concentration 2.4 mM; for remaining activity at 1700 µM: tested concentration 1.7 mM; for remaining activity at 1800 µM: tested concentration 1.8 mM; for remaining activity at 2300 µM: tested concentration 2.3 mM; for remaining activity at 2000 µM: tested concentration 2.0 mM; for remaining activity at 2200 µM: tested concentration 2.2 mM; for remaining activity at 2600 µM: tested concentration 2.6 mM.

[1] abbreviates: residual activity of DdlB, fragment library screening, tested concentration 2.5 mM, read-out: DdlB RA.
[2] abbreviates: residual activity, read-out: DdlB RA.
Where [3] appears, read: fragment library screening, read-out: DdlB RA.
[4] abbreviates: tested concentration 2.5 mM, read-out: DdlB RA.

Read-outs that look alike come from different tables or passages of the source.

As to `Cc1ccc(-c2ccnc3c(C(=O)O)cnn23)cc1` [Compound 10, 7-(p-Tolyl)pyrazolo[1,5-a]pyrimidine-3-carboxylic acid], where the note is “at 0.5 mM, read-out: DdlB inhibition, RA (Residual Activity)”, the remaining activity at 500 µM was determined as 101%.

As to `CNc1ccccc1N` [FLD179], the remaining activity at 2500 µM under setting [1] was found to be 84%.

With `Cn1ncc(N2CCC[C@@H](C(=O)O)C2)cc1=O` [Compound P207-8929], the remaining activity at 2100 µM (read-out: DdlB RA) is 92%.

In the case of `Nc1cccc([N+](=O)[O-])c1` [FLD061], the remaining activity at 2500 µM under setting [1] was found to be 98%.

`CC1=NN(C(C#N)c2cn(C)nc2C)C(C)(C)C1` (stereo not drawn) [Compound 8017-8222]: the remaining activity at 2400 µM (read-out: DdlB RA) is 105%.

`O=C(Nc1ccc(Cl)cc1)Nc1ccccc1C(=O)O` [Compound Y020-0051]: the remaining activity at 1700 µM under setting [2] is 119%.

For the compound `O=C(O)c1cc(S(=O)(=O)N2CCCC2)ccc1O` [Compound 8019-7119], under setting [2], the remaining activity at 1800 µM worked out at 97%.

For the compound `O=C(NC1CCCC1)[C@H]1CCCC[C@H]1C(=O)O` [Compound Y203-9770], the remaining activity at 2100 µM (read-out: DdlB RA) is 91%.

Turning to `Cc1cc(-c2ccc(Cl)cc2)nc2cc(C(=O)O)nn12` [Compound D717-0161], the remaining activity at 1700 µM under setting [3] came out at 88%.

As to `O=C1NC(C(=O)O)Cn2cccc21` (stereo not drawn) [Compound S531-0139], the remaining activity at 2800 µM (tested concentration 2.8 mM, read-out: DdlB RA) worked out at 90%.

On to `Cc1cccc(CS(=O)(=O)N2CCCC2)c1` [Compound Y300-2952], for which the remaining activity at 2300 µM (read-out: DdlB RA) was 98%.

`O=C(O)c1ccc2cc(O)ccc2c1` [FLD068]: the remaining activity at 2500 µM under setting [1] was determined as 94%.

Turning to `COC(=O)N1C2C=CC(C2)C1(C(F)(F)F)C(F)(F)F` (stereo not drawn) [Compound 8007-6774], the remaining activity at 2100 µM under setting [2] turned out to be 89%.

For `CCCC(CCC)n1nc(O)cc1N` [Compound D068-0218], the remaining activity at 2500 µM under setting [4] worked out at 100%.

Regarding `Cc1ccc(N)c(O)c1` [FLD023], under “read-out: DdlB RA”, the remaining activity at 2500 µM is 100%.

In the case of `Nc1cccc(O)c1` [FLD085], under setting [1], the remaining activity at 2500 µM turned out to be 100%.

For the compound `CCOc1ccc(NC(C)=O)cc1` [FLD064], the remaining activity at 2500 µM under setting [1] is 98%.

In the case of `CCS(=O)(=O)Nc1cccc(F)c1` [Compound Y207-1326], the remaining activity at 3000 µM (tested concentration 3.0 mM, read-out: DdlB RA) was determined as 92%.

Consider `Cc1ncoc1C(=O)N1CCCC(n2c(C)cnc2C)C1` (stereo not drawn) [Compound S692-1464], for which the remaining activity at 2100 µM under setting [2] was 96%.

For the compound `Cc1cccc(C(=O)N2CCCCC2c2nnc(C)[nH]2)c1` (stereo not drawn) [Compound M754-0809], under setting [2], the remaining activity at 1800 µM worked out at 89%.

For `O=c1c(-c2ccc(Cl)cc2)c(N2CCOCC2)c1=O` [Compound E786-0171], the remaining activity at 1800 µM (read-out: DdlB RA) turned out to be 141%.

As to `O=C(O)c1ccc(N2Cc3ccccc3C2=O)cc1` [Compound Y042-2866], the remaining activity at 2000 µM under setting [3] amounted to 82%.

For the compound `Cc1cc(F)c(F)c(C(=O)n2ccnc2)c1Cl` [Compound 8009-4247], the remaining activity at 2100 µM (read-out: DdlB RA) worked out at 102%.

Consider `CC(C)CNC(=O)Cc1c[nH]c2ncccc12` [Compound M508-0619], for which the remaining activity at 2200 µM under setting [2] stood at 94%.

As for `O=S(=O)(O)c1nnc(-c2ccncc2)[nH]1` [Compound 8020-6014], where the note is “read-out: DdlB RA”, the remaining activity at 2200 µM came out at 80%.

`O=C(c1ccco1)N1CCCCC1c1nnc(C2CC2)[nH]1` (stereo not drawn) [Compound M754-1192]: under setting [2], the remaining activity at 1700 µM came to 90%.

As to `CC(C)N1C(=O)C2(CCCC2)C1C(=O)O` (stereo not drawn) [Compound T964-0325], the remaining activity at 2400 µM (read-out: DdlB RA) worked out at 92%.

`COc1ccc2ncc(C(=O)O)c(O)c2c1` [Compound D284-0199]: the remaining activity at 2300 µM (read-out: DdlB RA) turned out to be 66%.

With `NS(=O)(=O)c1ccc(CNC(=O)C2CCCC2)cc1` [Compound Y207-3980], the remaining activity at 1800 µM (read-out: DdlB RA) was 93%.

As to `CCc1ccc(S(N)(=O)=O)cc1N` [Compound 8020-2865], the remaining activity at 2500 µM under setting [4] was determined as 97%.

Consider `N#CCc1ccc(C(F)(F)F)cc1` [FLD116], for which, under setting [1], the remaining activity at 2500 µM came out at 94%.

Consider `NC(=O)NC(=O)Cc1ccccc1` [FLD017], for which, under setting [1], the remaining activity at 2500 µM was 100%.

With `O=C(O)Cc1ccncc1` [FLD055], the remaining activity at 2500 µM under setting [1] was 96%.

On to `CCS(=O)(=O)Nc1cc(C(C)(C)C)on1` [Compound Y206-0720], for which the remaining activity at 2600 µM (read-out: DdlB RA) stood at 91%.

In the case of `NCCCN1CCCC1=O` [FF01-3614], the remaining activity at 4200 µM (residual activity of DdlB, fragment library screening, tested concentration 4.2 mM, read-out: DdlB RA) was found to be 90%.

`N#Cc1ccc(CCO)cc1` [FLD149]: the remaining activity at 2500 µM under setting [1] was found to be 100%.

On to `Nc1nnc(C2CC2)s1` [FLD126], for which the remaining activity at 2500 µM under setting [1] is 80%.

Take `O=C(O)c1cc(-c2cccnc2)nc2ccccc12` [Compound Y042-7719]: the remaining activity at 2000 µM under setting [3] amounted to 85%.

Turning to `O=C(NCc1c[nH]c2ncccc12)C1CCC1` [Compound P610-0073], the remaining activity at 2200 µM under setting [2] was 90%.

For `Cc1cnc(C)n1CCNC(=O)C1CC=CC1` [Compound S751-1890], the remaining activity at 2600 µM (read-out: DdlB RA) was 98%.

Consider `Cc1cc(N)n(-c2ccc(S(=O)(=O)O)cc2)n1` [Compound 2991-0739], for which the remaining activity at 2000 µM (read-out: DdlB RA) is 97%.

On to `O=C(O)c1ccccc1C(=O)NCc1ccccc1` [Compound K786-0839], for which the remaining activity at 2000 µM under setting [3] was determined as 98%.

As for `O=C(O)c1cc(-c2ccccc2Cl)on1` [Compound D717-0173], under setting [2], the remaining activity at 2200 µM was found to be 107%.

On to `O=C(O)c1cnn2c(-c3ccc(Cl)cc3)ccnc12` [Compound 12, 7–(4-Chlorophenyl)pyrazolo[1,5-a]pyrimidine-3-carboxylic acid], for which the remaining activity at 1000 µM (at 1 mM, read-out: DdlB inhibition, RA (Residual Activity)) came to 90%. Besides, the remaining activity at 5000 µM (at 5 mM, read-out: DdlB inhibition, RA (Residual Activity)) was found to be 0%.

In the case of `O=S(=O)(O)c1ccc2cccc(O)c2n1` [Compound 8009-2146], where the note is “read-out: DdlB RA”, the remaining activity at 2200 µM came out at 96%.

On to `Nc1cc[nH]c(=O)n1` [FLD053], for which the remaining activity at 2500 µM under setting [1] came out at 100%.

Take `CN(C)CC(=O)Nc1ccc(Cl)cn1` [Compound Y206-6252]: under “read-out: DdlB RA”, the remaining activity at 2300 µM was found to be 95%.

With `OCc1cccc(Oc2ccccc2)c1` [FLD065], under setting [1], the remaining activity at 2500 µM is 100%.

On to `N#Cc1ccc(O)cc1F` [Compound 00CS-0032], for which, where the note is “residual activity of DdlB, fragment library screening, tested concentration 3.6 mM, read-out: DdlB RA”, the remaining activity at 3600 µM stood at 94%.

`Cc1ccc(CS(=O)(=O)N2CCc3ccccc32)cc1` [Compound Y300-3078]: the remaining activity at 2100 µM under setting [2] is 112%.

Consider `CCS(=O)(=O)N1CC2(CC(N3CCCC3)CO2)C1` (stereo not drawn) [SA46-1771], for which, under setting [2], the remaining activity at 1800 µM turned out to be 90%.

On to `Cc1n[nH]c([C@@H]2CC(F)(F)CN2C2CCCCCC2)n1` [SB35-1022], for which, for the setting “residual activity, tested concentration 1.9 mM, read-out: DdlB RA”, the remaining activity at 1900 µM was found to be 97%.

`Cc1nc(O)[nH]c(=O)c1S(=O)(=O)N1CCCCC1` [Compound D668-0306]: under setting [2], the remaining activity at 1800 µM came out at 89%.

As to `CC1CN(C)C(C)CC1n1nc(O)cc1N` (stereo not drawn) [Compound D068-0221], the remaining activity at 2200 µM (read-out: DdlB RA) was 101%.

On to `CCn1c(C(=O)NC(C)C)cc2occc21` [Compound Z601-0941], for which, under “read-out: DdlB RA”, the remaining activity at 2300 µM amounted to 96%.

For the compound `N#Cc1cnn2c1NC(C1CC1)CC2C(F)(F)F` (stereo not drawn) [Compound Y501-9194], the remaining activity at 2300 µM (read-out: DdlB RA) came to 83%.

`NS(=O)(=O)c1ccccc1` [Compound 0402-0167]: the remaining activity at 3200 µM (tested concentration 3.2 mM, read-out: DdlB RA) was 96%.

On to `CC1(C)CC(=O)CC(C)(C)N1OC(=O)c1ccccn1` [Compound 8012-5220], for which the remaining activity at 2200 µM under setting [2] was determined as 97%.

Regarding `Oc1nonc1NCc1ccccc1` [Compound 8018-6481], the remaining activity at 2600 µM (read-out: DdlB RA) turned out to be 102%.

With `Nc1ncccn1` [FLD133], the remaining activity at 2500 µM under setting [1] worked out at 102%.

With `CCC1CCCCN1C(=O)C1CCCN1C(C)=O` (stereo not drawn) [Compound Z601-4855], the remaining activity at 2400 µM (read-out: DdlB RA) is 74%.

In the case of `O=C(O)CCc1cn2cccnc2n1` [Compound 8020-2316], the remaining activity at 2600 µM (read-out: DdlB RA) was found to be 94%.
